The subject of one assay is injected TA muscle. Description: IM rAAV gene transfer: histology and RT-PCR of injected TA muscle. To be noted: fifteen days post IM rAAV1 vector injection. It counts as in vivo, C57BL/6 mice.
In another assay the test system is CD4. The experiment in a line: Time-lapse microscopy of CD4 cell surface fluorescence. The following applies: time lapse for 4 hours, 400 µM, vs control. The assay is classed as cell-based, murine. The protocol:
Murine splenic CD4^+ T cells are first stained with CFSE, according to the manufacturer's recommendations (Invitrogen), and then with rat anti-mouse CD4-APC (RM4-5, BD Biosciences) mAb. After staining, cells are incubated in Ibidi's µ-chambers culture dish (Ibidi, Nanterre, France) in the thermo-regulated chamber of the Zeiss Axiovert 100 M confocal microscope. A time lapse acquisition is performed with a delay of 120 sec between frames. Each frame is illuminated using a 488 nm and 633 nm lasers, and fluorescence collected using 505-580 nm and 644-719 nm filters. The magnification is 40x/1.3 oil and images are saved as 8bits. The image stack is splitted using ImageJ-1.43, and images analyzed using CellProfiler 2.0.10415. The cell segmentation is performed on the CFSE fluorescence, and the fluorescence of the CD4 staining analyzed using the R software. Intensity is normalized to the maximum fluorescence measured at T0 for each condition.

In assay [1] the test system is Reactive Oxygen Species (ROS). Description: In vivo chemiluminescence imaging of localized inflammation (L-012). Details: species or system mice. To be noted: 4 days after first MnTBAP injection, IM rAAV gene transfer, vs PBS. The protocol:
MnTBAP (Calbiochem, San Diego, USA or Enzo Life Sciences, Farmingdale, USA) is dissolved in 75 mM NaOH to constitute a 20 mM stock solution. MnTBAP is dissolved in the complete medium, used for in vitro treatment, containing RPMI-1640 supplemented with 10% heat-inactivated fetal calf serum, 100 U/ml penicillin/streptomycin, 2 mM glutamax and 50 µM β-mercaptoethanol β-ME). Hypertonic medium, used to block clathrin dependent endocytosis, is complete medium supplemented with 0.45 M sucrose. For in vivo treatment, the stock solution is diluted with PBS and administered at 80 mg/kg intraperitoneally daily during five days. Control animals are injected with equivalent volume of PBS.
Intramuscular (IM) injection: Two hours post first intraperitoneal (IP) injection of MnTBAP, mice are anesthetized by IP injection of xylazine (10 mg/kg) and ketamine (100 mg/kg) and 25 µl of a rAAV2/1 CMV SGCA HY viral preparation containing 2.5.10^9 vg is injected in the left tibialis anterior muscle (TA). Controls are injected with PBS. Mice are sacrificed 15 days after vector injection and the injected muscles are harvested to perform histologic analysis. […]
After mice isofluorane anaesthesia, 100 µl of L-012 solution (15 mg/ml) (Wako, Osaka, Japan) are administered intravenously in retro-orbital sinus 4 days after first MnTBAP injection. […] Radiance (ph/s/cm^2/sr) is measured for each Region of Interest (ROI).

Setting [2] is: injected TA, vs non-treated control groups.

Take `O=C(O)c1ccc(-c2c3nc(c(-c4ccc(C(=O)O)cc4)c4ccc([n-]4)c(-c4ccc(C(=O)O)cc4)c4nc(c(-c5ccc(C(=O)O)cc5)c5ccc2[n-]5)C=C4)C=C3)cc1.[Mn+3]` [MnTBAP, manganese [III] tetrakis (4-benzoic acid) porphyrin]: in the assay with injected TA muscle (80 mg/kg IP daily 5 days), the muscle integrity result is given as “normal muscle integrity”. In the assay with injected TA muscle (setting [2]), the “CD8a mRNA expression” value is on record as “decrease of CD8a mRNA expression” and the SGCA transgene expression result was “increase of the SGCA transgene expression”. In addition, the “CD4 cell surface fluorescence over time” value in the assay with CD4 is reported as “CD4 declines on CD4^+ T cells”. The “Reactive Oxygen Species (ROS), average radiance of left inferior limb” value in assay [1] was “produce less Reactive Oxygen Species (ROS)”.

(Values after patent EP3431088A1, “MNTBAP FOR USE IN INDUCING A TRANSIENT IMMUNE TOLERANCE” (priority 2017, dated 2019).)
